In the NIST ThermoML archive (doi:10.1016/j.jct.2013.05.040):
± gives the expanded uncertainty stated by the source.

Assays:
[1] = Liquid; for mass density: Vibrating tube method; for viscosity: 101.33 kPa, Moving piston method
[2] = xn = mol fraction of the nth substance listed; conditions: Liquid; for viscosity: Moving piston method; for mass density: Vibrating tube method

CC(C)O [propan-2-ol]
mass density [kg/m3], [1]
Conditions | 302.9 K | 323 K
1000 kPa | – | 760.6 ± 0.4
1040 kPa | 778.1 ± 0.3 | –
2000 kPa | 778.9 ± 0.4 | –
2020 kPa | – | 761.6 ± 0.4
2990 kPa | 779.8 ± 0.4 | –
3000 kPa | – | 762.7 ± 0.4
4060 kPa | 780.8 ± 0.4 | –
4070 kPa | – | 763.7 ± 0.4
5000 kPa | – | 764.7 ± 0.4
5010 kPa | 781.6 ± 0.4 | –
6000 kPa | 782.5 ± 0.4 | –
6010 kPa | – | 765.7 ± 0.4
7020 kPa | 783.4 ± 0.4 | 766.7 ± 0.4
8010 kPa | – | 767.7 ± 0.4
8020 kPa | 784.3 ± 0.4 | –
9000 kPa | 785.1 ± 0.4 | –
9010 kPa | – | 768.6 ± 0.4
10000 kPa | 786 ± 0.4 | –
10020 kPa | – | 769.6 ± 0.4

[1]
Conditions | viscosity [mPa·s]
303.3 K | 1.716 ± 0.17
323.2 K | 0.973 ± 0.04

CC [ethane] + CC(C)O
[2]
Conditions | mass density, 302.9 K [kg/m3] | mass density, 323.1 K [kg/m3] | viscosity, 302.9 K [mPa·s] | viscosity, 323.1 K [mPa·s]
910 kPa, x1 = 0.057 | – | 741.3 ± 3.8 | – | 0.882 ± 0.12
1030 kPa, x1 = 0.09 | 751.2 ± 1.3 | – | 1.251 ± 0.058 | –
1990 kPa, x1 = 0.141 | – | 716.3 ± 1.9 | – | 0.663 ± 0.067
2030 kPa, x1 = 0.199 | 718.5 ± 1.9 | – | 0.919 ± 0.042 | –
2970 kPa, x1 = 0.227 | – | 688.2 ± 3.2 | – | 0.471 ± 0.078
3040 kPa, x1 = 0.347 | 669.3 ± 1.3 | – | 0.526 ± 0.083 | –
3650 kPa, x1 = 0.47 | 623 ± 1.3 | – | 0.246 ± 0.023 | –
3970 kPa, x1 = 0.334 | – | 650.6 ± 2.6 | – | 0.338 ± 0.042
4940 kPa, x1 = 0.478 | – | 593.7 ± 2.6 | – | 0.217 ± 0.036
5620 kPa, x1 = 0.644 | – | 515.7 ± 1.9 | – | 0.131 ± 0.011

CC(C)O [propan-2-ol] + O=C=O
[2]
Conditions | mass density, 302.8 K [kg/m3] | mass density, 323.1 K [kg/m3] | viscosity, 302.8 K [mPa·s] | viscosity, 323.1 K [mPa·s]
980 kPa, x2 = 0.047 | – | 762.7 ± 2.6 | – | 0.895 ± 0.077
990 kPa, x2 = 0.062 | 783.8 ± 1.3 | – | 1.365 ± 0.061 | –
1960 kPa, x2 = 0.102 | – | 767.2 ± 1.9 | – | 0.743 ± 0.12
2000 kPa, x2 = 0.133 | 791 ± 1.3 | – | 1.108 ± 0.057 | –
2950 kPa, x2 = 0.164 | – | 771.5 ± 3.2 | – | 0.657 ± 0.071
2980 kPa, x2 = 0.212 | 798.5 ± 1.3 | – | 0.895 ± 0.13 | –
3930 kPa, x2 = 0.23 | – | 776.1 ± 2 | – | 0.538 ± 0.081
3970 kPa, x2 = 0.304 | 807.3 ± 3.2 | – | 0.604 ± 0.029 | –
4930 kPa, x2 = 0.305 | – | 780.3 ± 2.6 | – | 0.394 ± 0.04
5940 kPa, x2 = 0.391 | – | 783.7 ± 2.6 | – | 0.321 ± 0.017

C [methane] + CC(C)O
[2]
Conditions | mass density, 302.8 K [kg/m3] | mass density, 323.1 K [kg/m3] | viscosity, 302.8 K [mPa·s] | viscosity, 323.1 K [mPa·s]
980 kPa, x1 = 0.018 | – | 754.5 ± 2.6 | – | 0.908 ± 0.077
1070 kPa, x1 = 0.019 | 771.2 ± 1 | – | 1.523 ± 0.19 | –
2020 kPa, x1 = 0.033 | – | 750 ± 1.9 | – | 0.847 ± 0.098
2080 kPa, x1 = 0.037 | 767.2 ± 2.9 | – | 1.403 ± 0.16 | –
3080 kPa, x1 = 0.049 | – | 745 ± 1.9 | – | 0.8 ± 0.09
3190 kPa, x1 = 0.055 | 761.2 ± 1 | – | 1.339 ± 0.11 | –
4080 kPa, x1 = 0.065 | – | 740.7 ± 1.3 | – | 0.74 ± 0.095
4080 kPa, x1 = 0.069 | 756.5 ± 3.2 | – | 1.262 ± 0.073 | –
4980 kPa, x1 = 0.078 | – | 736.9 ± 3.2 | – | 0.717 ± 0.026
5080 kPa, x1 = 0.085 | 753.3 ± 2 | – | 1.208 ± 0.18 | –
6040 kPa, x1 = 0.093 | – | 732.3 ± 2.3 | – | 0.676 ± 0.035
6060 kPa, x1 = 0.1 | 748.9 ± 1 | – | 1.129 ± 0.051 | –
